According to ChEMBL document CHEMBL1131827, “Ring E analogs of methyllycaconitine (MLA) as novel nicotinic antagonists” (Bioorg Med Chem Lett, 1999):

biological target: Chromaffin cell neuronal nicotinic acetylcholine receptor (Bos taurus) (UniProt Q8SPU6+Q07263+P54131); assay: Antagonist activity was determined by inhibition of neuronal nicotine acetylcholine receptor (nAChR)-stimulated catecholamine release in cultured bovine adrenal chromaffin cells; format: functional; parameters: concentration or dose not given beside the values; details: concentration not given here
Sequence (P54131 whole entry, looked up): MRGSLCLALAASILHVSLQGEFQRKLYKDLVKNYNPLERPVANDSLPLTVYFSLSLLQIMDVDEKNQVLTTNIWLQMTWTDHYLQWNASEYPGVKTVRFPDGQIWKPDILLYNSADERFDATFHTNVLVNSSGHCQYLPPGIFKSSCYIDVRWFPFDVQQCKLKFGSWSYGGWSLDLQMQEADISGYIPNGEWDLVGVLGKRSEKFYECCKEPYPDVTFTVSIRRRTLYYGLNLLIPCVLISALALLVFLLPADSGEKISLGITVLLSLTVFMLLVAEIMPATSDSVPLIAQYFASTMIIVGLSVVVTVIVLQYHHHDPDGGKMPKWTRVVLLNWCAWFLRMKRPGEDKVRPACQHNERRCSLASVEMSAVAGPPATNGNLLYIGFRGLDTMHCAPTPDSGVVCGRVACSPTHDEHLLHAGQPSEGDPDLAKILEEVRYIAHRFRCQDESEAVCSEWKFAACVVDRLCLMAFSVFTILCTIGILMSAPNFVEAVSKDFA
Sequence (Q07263 whole entry, looked up): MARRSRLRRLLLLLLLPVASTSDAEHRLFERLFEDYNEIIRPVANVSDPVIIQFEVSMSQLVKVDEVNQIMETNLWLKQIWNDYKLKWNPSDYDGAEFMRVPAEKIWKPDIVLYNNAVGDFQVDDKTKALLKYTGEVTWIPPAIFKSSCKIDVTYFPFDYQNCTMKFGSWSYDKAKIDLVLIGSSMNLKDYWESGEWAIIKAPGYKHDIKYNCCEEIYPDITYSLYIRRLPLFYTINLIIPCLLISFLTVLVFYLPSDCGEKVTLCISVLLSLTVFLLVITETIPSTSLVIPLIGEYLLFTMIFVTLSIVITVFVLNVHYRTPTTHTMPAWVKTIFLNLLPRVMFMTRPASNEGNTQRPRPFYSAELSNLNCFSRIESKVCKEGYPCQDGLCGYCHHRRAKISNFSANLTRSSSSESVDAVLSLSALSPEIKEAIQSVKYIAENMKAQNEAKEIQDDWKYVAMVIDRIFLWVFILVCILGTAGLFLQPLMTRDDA
Sequence (Q8SPU6 whole entry, looked up): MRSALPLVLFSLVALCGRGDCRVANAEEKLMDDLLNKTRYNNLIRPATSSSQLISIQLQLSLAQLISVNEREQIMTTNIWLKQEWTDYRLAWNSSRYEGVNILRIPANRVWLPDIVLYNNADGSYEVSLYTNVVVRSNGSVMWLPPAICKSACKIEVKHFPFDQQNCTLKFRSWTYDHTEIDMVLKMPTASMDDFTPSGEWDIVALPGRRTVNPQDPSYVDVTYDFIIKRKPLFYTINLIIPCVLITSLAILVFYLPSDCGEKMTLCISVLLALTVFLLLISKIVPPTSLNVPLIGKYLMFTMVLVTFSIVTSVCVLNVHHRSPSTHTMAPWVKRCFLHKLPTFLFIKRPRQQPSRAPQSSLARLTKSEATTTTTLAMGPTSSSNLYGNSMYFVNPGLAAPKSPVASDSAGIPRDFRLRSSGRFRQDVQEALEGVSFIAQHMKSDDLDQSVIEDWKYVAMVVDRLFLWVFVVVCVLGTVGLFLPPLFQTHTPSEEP

| SMILES | inhibition [%] |
| --- | --- |
| CC1CC(=O)N(c2ccccc2C(=O)OCC2CCCN(C(C)C)C2)C1=O (centres undefined) | 56.5 |
| CCN1C[C@]2(COC(=O)c3ccccc3N3C(=O)C[C@H](C)C3=O)CC[C@H](OC)[C@@]34[C@@H]5C[C@H]6[C@H](OC)[C@@H]5[C@](O)(C[C@@H]6OC)[C@](O)([C@@H](OC)[C@H]23)[C@@H]14 | 95.2 |
| CC(C)N1CCCC(COC(=O)c2ccccc2N2C(=O)CCC2=O)C1 (centres undefined) | 36.4 |
| CCCCN1CCCC(COC(=O)c2ccccc2N2C(=O)CCC2=O)C1 (centres undefined) | 38.4 |
| CC1CC(=O)N(c2ccccc2C(=O)OCC2CCCN(CCc3ccccc3)C2)C1=O (centres undefined) | 37 |
| CCOCCN1CCCC(COC(=O)c2ccccc2N2C(=O)CC(C)C2=O)C1 (centres undefined) | 45.9 |
| CC1CC(=O)N(c2ccccc2C(=O)OCC2CCCN(C)C2)C1=O (centres undefined) | 30.1 |
| CCN1CCCC(COC(=O)c2ccccc2N2C(=O)CC(C)C2=O)C1 (centres undefined) | 33.5 |
| CC1CC(=O)N(c2ccccc2C(=O)OCC2CCCN(CCCc3ccccc3)C2)C1=O (centres undefined) | 86.3 |
